According to publication PMC2375326, “In vitro evaluation of amino acid prodrugs of novel antitumour 2-(4-amino-3-methylphenyl)benzothiazoles” (British Journal of Cancer, 2002):

How the values were obtained:
MCF7 = assay: NCI in vitro cytotoxicity assay (SRB), MCF7; type: cell-based; details: Homo sapiens, 48 h exposure, sulforhodamine B assay, mean graph, read-out: Log10 GI50 (MCF7) (converted)
Protocol: (§1) Cell culture and drug application procedures have been described previously ([Boyd and Paull, 1995]). Briefly, cell lines were inoculated into a series of 96-well microtiter plates, with varied seeding densities depending on growth characteristics of each cell line. Following a 24 h drug free incubation, test agents were added at five 10-fold dilutions with a maximum concentration of 100 μM. Cellular protein levels were determined after 48 h drug exposure by sulphorhodamine B colorimetry.

[1] = system: CYP1A1 protein expression in HCT 116 cells; assay: Western blot of CYP1A1 protein, HCT 116 lysates; type: cell-based, human
Protocol: Whole cell lysates were prepared for examination of CYP1A1 protein expression from untreated MCF-7, IGROV-1 and HCT 116 cultures and following exposure of cells to compounds 1, 2, 2a, 2b, 3, 3a, 3b, 4, 4a and 4b. Following protein determination (n=3, [Bradford, 1976]) and addition of sample buffer, samples were boiled at 95°C for 5 min and solubilised proteins (50 μg) were separated by sodium dodecyl sulphate (SDS) polyacrylamide gel (10%) electrophoresis. Proteins were electroblotted to polyvinylidene difluoride (PVDF) membranes and probed for CYP1A1 protein with polyclonal antiserum specific for human CYP1A1/1A2 (Gentest Corporation). Secondary antibody was conjugated to alkaline phosphatase, and CYP1A1 was detected following brief (<10 min) incubation with bromochloroindolyl phosphate and nitro-blue tetrazolium in alkaline phosphatase buffer. Molecular weight markers and a positive control of recombinant CYP1A1 (Gentest Corporation), included in all blots, confirmed detection of 52 kDa CYP1A1 protein.

MDA-MB-435 = assay: NCI in vitro cytotoxicity assay (SRB), MDA-MB-435; type: cell-based; details: Homo sapiens, 48 h exposure, sulforhodamine B assay, mean graph, read-out: Log10 GI50 (MDA-MB-435) (converted)
Protocol: as §1

HT29 = assay: NCI in vitro cytotoxicity assay (SRB), HT29; type: cell-based; details: Homo sapiens, HT-29; 48 h exposure, sulforhodamine B assay, mean graph; read-out: Log10 GI50 (HT29) (converted)
Protocol: as §1

[2] = system: MDA 468 (ER−) human derived breast carcinoma cells; assay: Growth inhibitory assay (MTT), MDA 468; type: cell-based; details: Breast carcinoma cell, ER− MDA 468, 3 days (72 h) treatment, n=8, representative mean, ^a = biphasic dose response
Protocol: (§2) Prodrugs were prepared as 10 mM top stocks, dissolved in dimethylsulphoxide (DMSO) or sterile ddH2O, and stored at 4°C, protected from light for a maximum period of 4 weeks. MCF-7 (ER+) and MDA 468 (ER−) human derived breast carcinoma cells, cultivated at 37°C in an atmosphere of 5% CO2 in RPMI 1640 medium supplemented with 2 mM L-glutamine and 10% foetal calf serum, were routinely subcultured twice weekly to maintain continuous logarithmic growth. Cells were seeded into 96-well microtiter plates at a density of 5×10^3 per well and allowed 24 h to adhere before drugs were introduced (final concentration 0.1 nM–100 μM, n=8). Serial drug dilutions were prepared in medium immediately prior to each assay. Viable cell masses at the time of drug addition (time-zero), and following 72 h drug exposure were determined by cell-mediated 3-(4,5-dimethylthiazol-2-yl)-2,5-diphenyltetrazolium bromide (MTT) reduction. MTT was added to each well (final concentration 400 μg ml^−1) and plates were incubated at 37°C for 4 h to allow reduction of MTT by viable cell dehydrogenases to an insoluble formazan product. Well supernatants were aspirated and cellular formazan solubilised by addition of DMSO : glycine buffer (pH 10.5) (4 : 1). Cell growth as well as drug activity were determined by measuring absorbance at 550 nm using an Anthos Labtec systems plate reader.

RXF 393 = assay: NCI in vitro cytotoxicity assay (SRB), RXF 393; type: cell-based; details: Homo sapiens, 48 h exposure, sulforhodamine B assay, mean graph, read-out: Log10 GI50 (RXF 393) (converted)
Protocol: as §1

TK-10 = assay: NCI in vitro cytotoxicity assay (SRB), TK-10; type: cell-based; details: Homo sapiens, 48 h exposure, sulforhodamine B assay, mean graph, read-out: Log10 GI50 (TK-10) (converted)
Protocol: as §1

OVCAR-3 = assay: NCI in vitro cytotoxicity assay (SRB), OVCAR-3; type: cell-based; details: Homo sapiens, 48 h exposure, sulforhodamine B assay, mean graph, read-out: Log10 GI50 (OVCAR-3) (converted)
Protocol: as §1

A498 = assay: NCI in vitro cytotoxicity assay (SRB), A498; type: cell-based; details: Homo sapiens, 48 h exposure, sulforhodamine B assay, mean graph, read-out: Log10 GI50 (A498) (converted)
Protocol: as §1

NCI/ADR-RES = assay: NCI in vitro cytotoxicity assay (SRB), NCI/ADR-RES; type: cell-based; details: Homo sapiens, 48 h exposure, sulforhodamine B assay, mean graph, read-out: Log10 GI50 (NCI/ADR-RES) (converted)
Protocol: as §1

HCT-116 = assay: NCI in vitro cytotoxicity assay (SRB), HCT-116; type: cell-based; details: Homo sapiens, 48 h exposure, sulforhodamine B assay, mean graph, read-out: Log10 GI50 (HCT-116) (converted)
Protocol: as §1

BT-549 = assay: NCI in vitro cytotoxicity assay (SRB), BT-549; type: cell-based; details: Homo sapiens, 48 h exposure, sulforhodamine B assay, mean graph, read-out: Log10 GI50 (BT-549) (converted)
Protocol: as §1

SK-MEL-28 = assay: NCI in vitro cytotoxicity assay (SRB), SK-MEL-28; type: cell-based; details: Homo sapiens, 48 h exposure, sulforhodamine B assay, mean graph, read-out: Log10 GI50 (SK-MEL-28) (converted)
Protocol: as §1

[3] = system: MCF-7 (ER+) human derived breast carcinoma cells; assay: Growth inhibitory assay (MTT), MCF-7; type: cell-based; details: MCF7, ER+ MCF-7, 3 days (72 h) treatment, n=8, representative mean, ^a = biphasic dose response
Protocol: as §2

786-0 = assay: NCI in vitro cytotoxicity assay (SRB), 786-0; type: cell-based; details: Homo sapiens, 48 h exposure, sulforhodamine B assay, mean graph, read-out: Log10 GI50 (786-0) (converted)
Protocol: as §1

[4] = system: NCI in vitro panel of human derived cancer cell lines; assay: NCI in vitro cytotoxicity assay (SRB), whole panel mean graph; type: cell-based; details: average GI50 over the panel, 48 h exposure, sulforhodamine B assay, read-out: Log10 GI50 (MG_MID) (converted)
Protocol: as §1

UACC-257 = assay: NCI in vitro cytotoxicity assay (SRB), UACC-257; type: cell-based; details: Homo sapiens, 48 h exposure, sulforhodamine B assay, mean graph, read-out: Log10 GI50 (UACC-257) (converted)
Protocol: as §1

K-562 = assay: NCI in vitro cytotoxicity assay (SRB), K-562; type: cell-based; details: Homo sapiens, K562; 48 h exposure, sulforhodamine B assay, mean graph; read-out: Log10 GI50 (K-562) (converted)
Protocol: as §1

MALME-3M = assay: NCI in vitro cytotoxicity assay (SRB), MALME-3M; type: cell-based; details: Homo sapiens, 48 h exposure, sulforhodamine B assay, mean graph, read-out: Log10 GI50 (MALME-3M) (converted)
Protocol: as §1

Compound | GI50 (MCF7) | CYP1A1 protein expression (Western blot) [1] | GI50 (MDA-MB-435) | GI50 (HT29) | GI50 [2] | GI50 (RXF 393) | GI50 (TK-10) | GI50 (OVCAR-3) | GI50 (A498) | GI50 (NCI/ADR-RES) | GI50 (HCT-116) | GI50 (BT-549) | GI50 (SK-MEL-28) | GI50 [3] | GI50 (786-0) | GI50 [4] | GI50 (UACC-257) | GI50 (K-562) | GI50 (MALME-3M)
Cc1cc(-c2nc3cc(F)ccc3s2)ccc1N [Compound 2, 2-(4-Amino-3-methylphenyl)-5-fluorobenzothiazole] | < 0.01 µM | not induced | > 100 µM | 63.1 µM | < 0.0001 µM | 32.4 µM | < 0.01 µM | 24.5 µM | 2.82 µM | 66.1 µM | 15.8 µM | > 100 µM | > 100 µM | < 0.0001 µM | 24 µM | 11 µM | 77.6 µM | > 100 µM | 91.2 µM
Cc1cc(-c2nc3cc(F)ccc3s2)ccc1NC(=O)[C@@H](N)CCCCN [Compound 2b] | < 0.01 µM | not induced | 1.91 µM | 3.24 µM | 0.0577 µM | 7.24 µM | 0.0174 µM | 10.7 µM | 12.6 µM | 15.1 µM | 2.88 µM | 14.1 µM | 22.4 µM | 0.0391 µM | 4.07 µM | 2.51 µM | 15.8 µM | 2.29 µM | 17.4 µM
